From the supplement of paper PMC10307832

Assays:
Assay in all cases: relative viability (nuclei count vs DMSO), 5 days (fraction); higher = more cells survive
[1] = compound: CN[C@@H]1C[C@H]2O[C@@](C)([C@@H]1OC)n1c3ccccc3c3c4c(c5c6ccccc6n2c5c31)C(=O)NC4 [Staurosporine] + CC1(C)CCC(c2ccc(Cl)cc2)=C(CN2CCN(c3ccc(C(=O)NS(=O)(=O)c4ccc(N[C@H](CCN5CCOCC5)CSc5ccccc5)c(S(=O)(=O)C(F)(F)F)c4)cc3)CC2)C1 [Navitoclax] (partner 0.5 µM)
How it was run: (§1)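 Five library-drug doses in √10 steps were combined with a fixed anchor-drug dose, or a single drug was given alone, by pin tool to lung cancer cell lines in 1536-well plates the day after seeding. Nuclei were stained and counted after 5 days. Relative viability is the nuclei count in treated wells over that in vehicle wells, taken as the median of duplicate plates.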

Sulindac + Linsitinib = compound: CC1=C(CC(=O)O)c2cc(F)ccc2/C1=C\c1ccc([S+](C)[O-])cc1 [Sulindac] + C[C@]1(O)C[C@@H](c2nc(-c3ccc4ccc(-c5ccccc5)nc4c3)c3c(N)nccn32)C1 [Linsitinib] (partner 1 µM)
How it was run: as §1

[2] = compound: O=c1[nH]cc(F)c(=O)[nH]1 [5-Fluorouracil] + Cc1nc(NC(=O)N2CCC[C@H]2C(N)=O)sc1-c1ccnc(C(C)(C)C(F)(F)F)c1 [Alpelisib] (partner 2 µM)
How it was run: as §1

[3] = compound: O=c1[nH]cc(F)c(=O)[nH]1 [5-Fluorouracil] + COc1cc2c(Oc3ccc(NC(=O)C4(C(=O)Nc5ccc(F)cc5)CC4)cc3F)ccnc2cc1OCCCN1CCOCC1 [Foretinib] (partner 0.25 µM)
How it was run: as §1

Cell Line	relative viability ([1]; first compound 0.005 µM)	relative viability ([1]; first compound 0.05 µM)	relative viability ([1]; first compound 0.1581 µM)	relative viability ([1]; first compound 0.5 µM)	relative viability (Sulindac + Linsitinib; first compound 0.08 µM)	relative viability (Sulindac + Linsitinib; first compound 0.253 µM)	relative viability (Sulindac + Linsitinib; first compound 0.8 µM)	relative viability (Sulindac + Linsitinib; first compound 2.53 µM)	relative viability (Sulindac + Linsitinib; first compound 8 µM)	relative viability ([2]; first compound 0.02 µM)	relative viability ([2]; first compound 0.2 µM)	relative viability ([2]; first compound 0.6325 µM)	relative viability ([2]; first compound 2 µM)	relative viability ([3]; first compound 0.02 µM)	relative viability ([3]; first compound 0.2 µM)	relative viability ([3]; first compound 0.6325 µM)	relative viability ([3]; first compound 2 µM)	relative viability ([1]; first compound 0.01581 µM)
NCI-H1944	1.08	0.763	0.562	0.359	1.19	1.14	1	1.24	1.34	0.804	0.763	0.351	0.211	0.834	0.702	0.314	0.184	
PC-14	0.901	0.887	0.0852	0.053	1.01	1.02	0.708	1.02	1.07	1.02	0.962	0.748	0.424	1.1	0.987	0.757	0.58	0.562
NCI-H1650	0.63	0.29	0.192	0.116										0.963	1.09	0.776	0.37	0.493
HCC-827	1.06	0.768	0.725	0.488	0.932	0.939	0.988	0.937	0.967	0.777	0.888	0.681	0.451	0.879	0.95	0.602	0.429	
HCC-366	1.03	0.5	0.0585	0.0142	0.567	0.759	0.183	0.787	1.03	0.227	0.466	0.182	0.0921	0.955	0.732	0.43	0.217	
HARA		0.37	0.157	0.161	1.23	1.09		1.06	0.851	0.902	0.925	0.809	0.748	0.884	0.855	0.875	0.713	0.538
NCI-H441	0.521	0.325	0.16	0.17	0.469	0.375	0.48	0.638	0.849	0.792	0.644	0.563	0.411	1.01	0.887	0.558	0.361	0.333
LXF-289	0.944	0.263	0.0806	0.14	1.02	0.984	0.931	1.05	0.993	1.03	0.595	0.353	0.286	0.917	0.757	0.468	0.313	
SK-LU-1	0.323	0.131	0.151	0.059	1.13	1.27	1.19	1	1.5	0.934	1.12	0.868	0.704	0.819	0.902	0.75	0.681	0.115
CAL-12T	0.285	0.152	0.13	0.0943	0.787	0.858	0.593	0.795	0.705	1.47	1.22	1.02	0.425	1.21	1.21	1.07	0.434	0.314
COR-L 105	0.573	0.258	0.272	0.242	1.1	0.857	0.729	0.992	1.13	0.725	1.11	0.874	0.449	1.2	1.14	0.929	0.595	0.275
NCI-H2405	0.132	0.0985	0.0939	0.0834	1.01	0.934	0.852	0.918	1.13	0.793	0.705	0.737	0.609	1	1.13	1.01	1.02	0.061
NCI-H2228	0.6	0.165	0.127	0.0586	0.704	0.659	0.765	0.701	1.2	0.582	0.655	0.59	0.409	0.981	0.808	0.625	0.343	0.399
PC-3 [JPC-3]	0.933	0.552	0.485	0.406	0.932	0.95	0.951	0.905	0.984	0.913	1.04	0.838	0.708	1.06	1.03	0.881	0.703	
SW 1573	0.898	0.193	0.0915	0.0731	0.834	0.788	0.804	0.95	0.722	0.705	0.877	0.867	0.507	0.867	1.11	0.784	0.641	0.297
A549	0.616	0.123	0.0294	0.0297	0.532	0.535		0.572	0.641	0.587	0.476	0.256	0.113	0.992	0.945	0.517	0.156	0.385
NCI-H1623														0.567	0.35	0.306	0.259	
NCI-H1666	0.722	0.395	0.324	0.202		0.797	0.854	0.779	0.854	0.823	0.442	0.35	0.306	0.969	0.672	0.466	0.405	0.554
NCI-H2087	0.744	0.374	0.133	0.103	1.01	1.13	0.938	0.964	1.17	0.977	0.923	0.659	0.536	1.27	1.05	0.628	0.519	0.679
